# Measurements from ChEMBL document CHEMBL1201862, “PubChem BioAssay data set” (2004).
#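 Briefly, cells in 96-well plates were exposed to five compound concentrations for 48 h, and endpoints were estimated by linear interpolation. The concentration for 50% growth inhibition is given as GI50.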 The source made the active and inactive calls. Rule as the data show it: active = GI50 up to about 1.1 µM and inactive = higher.
# What was measured:
# Test in all cases: NCI anticancer screen, dose series, 48 h
# 786-0 = system: 786-0
# A498 = system: A498
# A549 = system: A549
# ACHN = system: ACHN
# BT-549 = system: BT-549
# CAKI-1 = system: CAKI-1
# CCRF-CEM = system: CCRF-CEM
# COLO 205 = system: COLO 205
# DU-145 = system: DU-145
# EKVX = system: EKVX
# HCC 2998 = system: HCC 2998
# HCT-116 = system: HCT-116
# HCT-15 = system: HCT-15
# HL-60 = system: HL-60
# HOP-92 = system: HOP-92
# Hs-578T = system: Hs-578T
# IGROV-1 = system: IGROV-1
# K562 = system: K562
# KM12 = system: KM12
# LOX IMVI = system: LOX IMVI
# M14 = system: M14
# MCF7 = system: MCF7
# MDA-MB-231 = system: MDA-MB-231
# MDA-MB-435 = system: MDA-MB-435
# MDA-N = system: MDA-N
# MOLT-4 = system: MOLT-4
# Malme-3M = system: Malme-3M
# NCI-H226 = system: NCI-H226
# NCI-H460 = system: NCI-H460
# NCI-H522 = system: NCI-H522
# NCI/ADR-RES = system: NCI/ADR-RES
# OVCAR-3 = system: OVCAR-3
# OVCAR-4 = system: OVCAR-4
# OVCAR-5 = system: OVCAR-5
# OVCAR-8 = system: OVCAR-8
# PC-3 = system: PC-3
# RPMI-8226 = system: RPMI-8226
# RXF 393 = system: RXF 393
# SF-268 = system: SF-268
# SF-295 = system: SF-295
# SF-539 = system: SF-539
# SK-MEL-28 = system: SK-MEL-28
# SK-MEL-2 = system: SK-MEL-2
# SK-MEL-5 = system: SK-MEL-5
# SN12C = system: SN12C
# SNB-19 = system: SNB-19
# SNB-75 = system: SNB-75
# SR = system: SR
# SW-620 = system: SW-620
# T47D = system: T47D
# TK-10 = system: TK-10
# U-251 = system: U-251
# UACC-257 = system: UACC-257
# UACC-62 = system: UACC-62
# UO-31 = system: UO-31
# HOP-62 = system: HOP-62
# HT-29 = system: HT-29
# NCI-H23 = system: NCI-H23
# SK-OV-3 = system: SK-OV-3
smiles,measurement,setting,value
Cc1c(C)c2c(c(N)c1C#N)C(=O)N(NC(=O)c1ccccc1)C2=O,GI50,786-0,> 100 µM (inactive)
same,GI50,A498,> 100 µM (inactive)
same,GI50,A549,> 100 µM (inactive)
same,GI50,ACHN,> 100 µM (inactive)
same,GI50,BT-549,> 100 µM (inactive)
same,GI50,CAKI-1,> 100 µM (inactive)
same,GI50,CCRF-CEM,> 100 µM (inactive)
same,GI50,COLO 205,> 100 µM (inactive)
same,GI50,DU-145,> 100 µM (inactive)
same,GI50,EKVX,76.7 µM (inactive)
same,GI50,HCC 2998,> 100 µM (inactive)
same,GI50,HCT-116,> 100 µM (inactive)
same,GI50,HCT-15,> 100 µM
same,GI50,HL-60,> 100 µM (inactive)
same,GI50,HOP-92,> 100 µM (inactive)
same,GI50,Hs-578T,> 100 µM (inactive)
same,GI50,IGROV-1,> 100 µM (inactive)
same,GI50,K562,> 100 µM (inactive)
same,GI50,KM12,> 100 µM (inactive)
same,GI50,LOX IMVI,> 100 µM (inactive)
same,GI50,M14,> 100 µM (inactive)
same,GI50,MCF7,> 100 µM (inactive)
same,GI50,MDA-MB-231,> 100 µM (inactive)
same,GI50,MDA-MB-435,> 100 µM (inactive)
same,GI50,MDA-N,> 100 µM (inactive)
same,GI50,MOLT-4,> 100 µM (inactive)
same,GI50,Malme-3M,> 100 µM (inactive)
same,GI50,NCI-H226,> 100 µM (inactive)
same,GI50,NCI-H460,> 100 µM (inactive)
same,GI50,NCI-H522,> 100 µM (inactive)
same,GI50,NCI/ADR-RES,> 100 µM (inactive)
same,GI50,OVCAR-3,> 100 µM (inactive)
same,GI50,OVCAR-4,> 100 µM (inactive)
same,GI50,OVCAR-5,> 100 µM (inactive)
same,GI50,OVCAR-8,> 100 µM (inactive)
same,GI50,PC-3,> 100 µM (inactive)
same,GI50,RPMI-8226,> 100 µM (inactive)
same,GI50,RXF 393,> 100 µM (inactive)
same,GI50,SF-268,> 100 µM (inactive)
same,GI50,SF-295,> 100 µM (inactive)
same,GI50,SF-539,> 100 µM (inactive)
same,GI50,SK-MEL-28,> 100 µM (inactive)
same,GI50,SK-MEL-2,> 100 µM (inactive)
same,GI50,SK-MEL-5,> 100 µM (inactive)
same,GI50,SN12C,> 100 µM (inactive)
same,GI50,SNB-19,> 100 µM (inactive)
same,GI50,SNB-75,> 100 µM (inactive)
same,GI50,SR,> 100 µM (inactive)
same,GI50,SW-620,> 100 µM (inactive)
same,GI50,T47D,24.8 µM (inactive)
same,GI50,TK-10,> 100 µM (inactive)
same,GI50,U-251,> 100 µM (inactive)
same,GI50,UACC-257,> 100 µM (inactive)
same,GI50,UACC-62,> 100 µM (inactive)
same,GI50,UO-31,36.1 µM (inactive)
CC1=C[C@@H](C)C[C@]2(C)CC[C@H](O2)[C@]23CC[C@](CO)(C[C@H](O2)[C@@H]2O[C@@](C)(CC2=O)[C@@H](O)[C@H]2CC[C@@]4(CCC[C@@H](O4)[C@H](C)C(=O)O[C@H]4C[C@H]([C@]5(O)OCC[C@H](C)[C@@H]5O)O[C@H]4C=C1)O2)O3,GI50,786-0,0.00843 µM (active)
same,GI50,A498,0.00229 µM (active)
same,GI50,A549,0.0294 µM (active)
same,GI50,ACHN,0.0249 µM (active)
same,GI50,BT-549,0.0127 µM (active)
same,GI50,CAKI-1,0.00724 µM (active)
same,GI50,CCRF-CEM,0.00471 µM (active)
same,GI50,COLO 205,0.00192 µM (active)
same,GI50,DU-145,0.247 µM (active)
same,GI50,EKVX,0.013 µM (active)
same,GI50,HCC 2998,0.0906 µM (active)
same,GI50,HCT-116,0.0222 µM (active)
same,GI50,HCT-15,0.15 µM
same,GI50,HL-60,0.0809 µM (active)
same,GI50,HOP-62,0.00345 µM (active)
same,GI50,HOP-92,0.00163 µM (active)
same,GI50,HT-29,0.0166 µM (active)
same,GI50,Hs-578T,0.00163 µM (active)
same,GI50,IGROV-1,0.00373 µM (active)
same,GI50,K562,0.0183 µM (active)
same,GI50,KM12,0.757 µM (active)
same,GI50,LOX IMVI,0.001 µM (active)
same,GI50,M14,0.0258 µM (active)
same,GI50,MCF7,> 10 µM (inactive)
same,GI50,MDA-MB-231,0.0225 µM (active)
same,GI50,MDA-MB-435,0.0249 µM (active)
same,GI50,MDA-N,0.0951 µM (active)
same,GI50,Malme-3M,0.00873 µM (active)
same,GI50,NCI-H226,0.00386 µM (active)
same,GI50,NCI-H23,0.0935 µM (active)
same,GI50,NCI-H460,0.0333 µM (active)
same,GI50,NCI-H522,0.116 µM (active)
same,GI50,NCI/ADR-RES,> 5.18 µM (inactive)
same,GI50,OVCAR-3,0.0171 µM (active)
same,GI50,OVCAR-4,0.0179 µM (active)
same,GI50,OVCAR-5,0.0316 µM (active)
same,GI50,OVCAR-8,0.0562 µM (active)
same,GI50,PC-3,0.0137 µM (active)
same,GI50,RPMI-8226,> 10 µM (inactive)
same,GI50,RXF 393,0.0118 µM (active)
same,GI50,SF-268,0.00279 µM (active)
same,GI50,SF-295,0.00341 µM (active)
same,GI50,SF-539,0.00272 µM (active)
same,GI50,SK-MEL-28,0.0124 µM (active)
same,GI50,SK-MEL-2,0.0513 µM (active)
same,GI50,SK-MEL-5,0.0142 µM (active)
same,GI50,SK-OV-3,0.0177 µM (active)
same,GI50,SN12C,0.0212 µM (active)
same,GI50,SNB-19,0.0197 µM (active)
same,GI50,SNB-75,0.001 µM (active)
same,GI50,SR,0.0139 µM (active)
same,GI50,SW-620,0.214 µM (active)
same,GI50,T47D,0.427 µM (active)
same,GI50,TK-10,0.0179 µM (active)
same,GI50,U-251,0.022 µM (active)
same,GI50,UACC-257,0.142 µM (active)
same,GI50,UACC-62,0.00325 µM (active)
same,GI50,UO-31,0.0435 µM (active)
C/C(Nc1ccc(Cl)cc1)=C1/CCOC1=O,GI50,786-0,> 100 µM (inactive)
same,GI50,A498,> 100 µM (inactive)
same,GI50,A549,4.89 µM (inactive)
same,GI50,ACHN,13.7 µM (inactive)
same,GI50,BT-549,52.7 µM (inactive)
same,GI50,CAKI-1,> 66.1 µM (inactive)
same,GI50,CCRF-CEM,1.55 µM (inactive)
same,GI50,COLO 205,1.44 µM (inactive)
same,GI50,DU-145,6.31 µM (inactive)
same,GI50,EKVX,34.3 µM (inactive)
same,GI50,HCC 2998,5.68 µM (inactive)
same,GI50,HCT-15,> 100 µM
same,GI50,HL-60,1.15 µM (inactive)
same,GI50,HOP-92,> 100 µM (inactive)
same,GI50,HT-29,30.1 µM (inactive)
same,GI50,Hs-578T,> 100 µM (inactive)
same,GI50,IGROV-1,> 23 µM (inactive)
same,GI50,K562,0.346 µM (active)
same,GI50,KM12,0.618 µM (active)
same,GI50,LOX IMVI,0.277 µM (active)
same,GI50,M14,2.62 µM (inactive)
same,GI50,MCF7,13.2 µM (inactive)
same,GI50,MDA-MB-231,> 100 µM (inactive)
same,GI50,MDA-MB-435,0.698 µM (active)
same,GI50,MDA-N,92.5 µM (inactive)
same,GI50,MOLT-4,1.93 µM (inactive)
same,GI50,Malme-3M,> 100 µM (inactive)
same,GI50,NCI-H226,> 100 µM (inactive)
same,GI50,NCI-H23,> 100 µM (inactive)
same,GI50,NCI-H460,> 31.4 µM (inactive)
same,GI50,NCI-H522,> 70 µM (inactive)
same,GI50,NCI/ADR-RES,> 75.9 µM (inactive)
same,GI50,OVCAR-3,46.8 µM (inactive)
same,GI50,OVCAR-4,> 100 µM (inactive)
same,GI50,OVCAR-5,> 20.5 µM (inactive)
same,GI50,OVCAR-8,7.89 µM (inactive)
same,GI50,PC-3,> 43.7 µM (inactive)
same,GI50,RPMI-8226,1.27 µM (inactive)
same,GI50,RXF 393,> 32.1 µM (inactive)
same,GI50,SF-268,> 100 µM (inactive)
same,GI50,SF-295,6.7 µM (inactive)
same,GI50,SF-539,> 25.4 µM (inactive)
same,GI50,SK-MEL-28,> 100 µM (inactive)
same,GI50,SK-MEL-2,12.7 µM (inactive)
same,GI50,SK-MEL-5,1.13 µM (inactive)
same,GI50,SK-OV-3,59.2 µM (inactive)
same,GI50,SN12C,> 100 µM (inactive)
same,GI50,SNB-19,> 100 µM (inactive)
same,GI50,SNB-75,> 67.8 µM (inactive)
same,GI50,SR,21.5 µM (inactive)
same,GI50,SW-620,> 53.2 µM (inactive)
same,GI50,T47D,4.91 µM (inactive)
same,GI50,TK-10,46.8 µM (inactive)
same,GI50,U-251,> 100 µM (inactive)
same,GI50,UACC-257,46.5 µM (inactive)
same,GI50,UACC-62,0.168 µM (active)
same,GI50,UO-31,2.81 µM (inactive)
